In patent US12421232B2, “Kinase inhibitor compounds and compositions and methods of use” (ICAHN SCHOOL OF MEDICINE AT MOUNT SINAI, priority 2018, dated 2025):

Tests used:
[1] = tested on: NFAT2-GFP nuclear translocation in R7T1 rodent beta cells; assay: NFAT2 translocation assay; format: cell-based; details: 10 μM, 24 hours
From the text: NFAT2T Translocation Assay. […] At least 1000 cells were counted.

[2] = biological target: T1, Serotonin (5-Hydroxytryptamine) 5-HT2A (Homo sapiens, UniProt P28223); assay: Eurofins CEREP Screen; format: binding
T1 construct: purchased Eurofins CEREP
T1 sequence (P28223 whole entry): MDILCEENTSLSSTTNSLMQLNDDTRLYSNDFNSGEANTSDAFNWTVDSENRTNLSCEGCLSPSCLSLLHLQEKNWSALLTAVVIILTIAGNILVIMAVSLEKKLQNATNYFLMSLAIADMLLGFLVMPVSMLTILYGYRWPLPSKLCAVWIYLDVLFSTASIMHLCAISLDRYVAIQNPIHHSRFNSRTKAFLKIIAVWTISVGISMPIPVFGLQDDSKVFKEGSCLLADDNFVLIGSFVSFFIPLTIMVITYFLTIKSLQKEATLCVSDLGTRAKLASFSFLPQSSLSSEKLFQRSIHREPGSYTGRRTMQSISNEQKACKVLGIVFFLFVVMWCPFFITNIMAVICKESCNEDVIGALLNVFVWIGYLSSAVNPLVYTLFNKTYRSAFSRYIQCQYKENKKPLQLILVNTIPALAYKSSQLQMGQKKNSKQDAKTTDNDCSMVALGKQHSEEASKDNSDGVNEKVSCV

[3] = biological target: T2, Adrenergic α2C (Homo sapiens, UniProt P18825); assay: Eurofins CEREP Screen; format: binding
T2 construct: purchased Eurofins CEREP
T2 sequence (P18825 whole entry): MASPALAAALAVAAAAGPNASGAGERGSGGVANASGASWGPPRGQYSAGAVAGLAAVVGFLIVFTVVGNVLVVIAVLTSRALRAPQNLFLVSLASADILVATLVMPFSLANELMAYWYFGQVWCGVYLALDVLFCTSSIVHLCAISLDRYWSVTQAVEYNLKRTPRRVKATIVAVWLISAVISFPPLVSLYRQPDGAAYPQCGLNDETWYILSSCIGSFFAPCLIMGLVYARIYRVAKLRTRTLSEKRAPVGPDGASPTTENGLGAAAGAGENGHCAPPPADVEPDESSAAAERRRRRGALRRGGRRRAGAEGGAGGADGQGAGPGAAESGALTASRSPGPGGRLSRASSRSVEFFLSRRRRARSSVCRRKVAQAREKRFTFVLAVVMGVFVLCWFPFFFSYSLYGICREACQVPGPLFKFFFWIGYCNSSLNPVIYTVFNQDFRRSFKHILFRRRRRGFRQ

[4] = biological target: T3, Adrenergic α2B (Homo sapiens, UniProt P18089); assay: Eurofins CEREP Screen; format: binding
T3 construct: purchased Eurofins CEREP
T3 sequence (P18089 whole entry): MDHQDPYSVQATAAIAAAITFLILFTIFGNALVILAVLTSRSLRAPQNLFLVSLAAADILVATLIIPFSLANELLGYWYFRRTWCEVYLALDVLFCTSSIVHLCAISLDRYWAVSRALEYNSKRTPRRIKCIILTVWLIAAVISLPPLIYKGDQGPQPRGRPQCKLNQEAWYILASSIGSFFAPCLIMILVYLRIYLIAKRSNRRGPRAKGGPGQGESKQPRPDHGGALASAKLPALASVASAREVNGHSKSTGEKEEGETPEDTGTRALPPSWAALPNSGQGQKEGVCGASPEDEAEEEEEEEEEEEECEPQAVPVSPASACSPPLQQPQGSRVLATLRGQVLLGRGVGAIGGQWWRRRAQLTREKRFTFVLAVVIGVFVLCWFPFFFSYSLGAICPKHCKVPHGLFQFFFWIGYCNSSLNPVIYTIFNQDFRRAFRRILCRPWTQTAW

[5] = biological target: T4, Serotonin (5-Hydroxytryptamine) 5-HT6 (Homo sapiens, UniProt P50406); assay: Eurofins CEREP Screen; format: binding
T4 construct: Eurofins CEREP (contract screen)
T4 sequence (P50406 whole entry): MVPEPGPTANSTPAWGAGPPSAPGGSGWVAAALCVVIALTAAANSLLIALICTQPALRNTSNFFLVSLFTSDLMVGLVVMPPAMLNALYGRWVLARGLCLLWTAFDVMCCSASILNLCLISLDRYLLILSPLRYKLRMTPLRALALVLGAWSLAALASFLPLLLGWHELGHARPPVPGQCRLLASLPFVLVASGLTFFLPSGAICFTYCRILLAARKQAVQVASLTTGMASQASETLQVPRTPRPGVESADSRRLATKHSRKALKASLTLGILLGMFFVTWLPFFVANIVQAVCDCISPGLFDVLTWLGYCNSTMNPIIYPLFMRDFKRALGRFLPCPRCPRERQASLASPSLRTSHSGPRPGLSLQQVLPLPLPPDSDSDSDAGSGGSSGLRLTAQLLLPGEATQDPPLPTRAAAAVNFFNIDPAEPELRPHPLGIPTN

[6] = biological target: T5, Transporter, Norepinephrine (NET) (Homo sapiens, UniProt P23975); assay: Eurofins CEREP Screen; format: binding
T5 construct: Eurofins CEREP (contract screen)
T5 sequence (P23975 whole entry): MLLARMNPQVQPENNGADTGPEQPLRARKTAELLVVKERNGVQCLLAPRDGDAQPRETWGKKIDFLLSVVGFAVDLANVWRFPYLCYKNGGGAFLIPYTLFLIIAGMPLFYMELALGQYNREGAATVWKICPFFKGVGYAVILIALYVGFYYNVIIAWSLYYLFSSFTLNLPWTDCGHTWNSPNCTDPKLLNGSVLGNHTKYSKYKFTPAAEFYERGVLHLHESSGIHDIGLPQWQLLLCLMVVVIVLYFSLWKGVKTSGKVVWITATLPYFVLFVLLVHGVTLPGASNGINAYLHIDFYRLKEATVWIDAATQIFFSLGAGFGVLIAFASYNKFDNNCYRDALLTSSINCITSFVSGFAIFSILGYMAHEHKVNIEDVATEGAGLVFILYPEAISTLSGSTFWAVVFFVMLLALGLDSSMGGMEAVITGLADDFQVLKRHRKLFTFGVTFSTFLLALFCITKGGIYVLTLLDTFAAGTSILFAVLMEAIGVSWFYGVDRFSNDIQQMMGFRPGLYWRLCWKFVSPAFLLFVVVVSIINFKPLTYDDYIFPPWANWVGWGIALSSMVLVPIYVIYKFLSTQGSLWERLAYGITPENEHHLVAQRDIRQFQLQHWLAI

[7] = biological target: T6, Serotonin (5-Hydroxytryptamine) 5-HT7 (Homo sapiens, UniProt P34969); assay: Eurofins CEREP Screen; format: binding
T6 construct: Eurofins CEREP (contract screen)
T6 sequence (P34969 whole entry): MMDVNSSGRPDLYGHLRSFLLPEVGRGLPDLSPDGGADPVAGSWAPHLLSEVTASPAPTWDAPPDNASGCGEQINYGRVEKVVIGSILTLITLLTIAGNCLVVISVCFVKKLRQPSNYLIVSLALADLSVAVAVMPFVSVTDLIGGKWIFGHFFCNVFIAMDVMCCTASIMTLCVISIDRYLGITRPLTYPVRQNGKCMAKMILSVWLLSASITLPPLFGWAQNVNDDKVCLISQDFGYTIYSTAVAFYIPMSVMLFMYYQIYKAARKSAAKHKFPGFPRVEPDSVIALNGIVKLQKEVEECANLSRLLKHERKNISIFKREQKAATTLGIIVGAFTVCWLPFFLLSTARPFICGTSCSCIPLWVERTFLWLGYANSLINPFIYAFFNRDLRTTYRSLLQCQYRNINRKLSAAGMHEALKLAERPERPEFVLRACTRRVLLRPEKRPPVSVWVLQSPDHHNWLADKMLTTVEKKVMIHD

[8] = biological target: T7, Serotonin (5-Hydroxytryptamine) 5-HT2C (Homo sapiens, UniProt P28335); assay: Eurofins CEREP Screen; format: binding
T7 construct: purchased Eurofins CEREP
T7 sequence (P28335 33-458): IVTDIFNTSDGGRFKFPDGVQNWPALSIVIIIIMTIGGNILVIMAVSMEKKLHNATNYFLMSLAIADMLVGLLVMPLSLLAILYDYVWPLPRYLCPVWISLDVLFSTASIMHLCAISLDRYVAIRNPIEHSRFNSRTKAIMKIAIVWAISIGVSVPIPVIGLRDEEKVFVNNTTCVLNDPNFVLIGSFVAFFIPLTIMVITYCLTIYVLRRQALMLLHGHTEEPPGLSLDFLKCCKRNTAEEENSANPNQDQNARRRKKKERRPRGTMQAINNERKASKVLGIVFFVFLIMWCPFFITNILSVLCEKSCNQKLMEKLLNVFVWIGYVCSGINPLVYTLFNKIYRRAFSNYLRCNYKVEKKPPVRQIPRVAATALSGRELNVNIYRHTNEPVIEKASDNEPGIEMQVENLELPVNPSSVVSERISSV

[9] = biological target: Adrenergic α2A (Homo sapiens, UniProt P08913); assay: biochemical
Chain of Adrenergic α2A (P08913 whole entry): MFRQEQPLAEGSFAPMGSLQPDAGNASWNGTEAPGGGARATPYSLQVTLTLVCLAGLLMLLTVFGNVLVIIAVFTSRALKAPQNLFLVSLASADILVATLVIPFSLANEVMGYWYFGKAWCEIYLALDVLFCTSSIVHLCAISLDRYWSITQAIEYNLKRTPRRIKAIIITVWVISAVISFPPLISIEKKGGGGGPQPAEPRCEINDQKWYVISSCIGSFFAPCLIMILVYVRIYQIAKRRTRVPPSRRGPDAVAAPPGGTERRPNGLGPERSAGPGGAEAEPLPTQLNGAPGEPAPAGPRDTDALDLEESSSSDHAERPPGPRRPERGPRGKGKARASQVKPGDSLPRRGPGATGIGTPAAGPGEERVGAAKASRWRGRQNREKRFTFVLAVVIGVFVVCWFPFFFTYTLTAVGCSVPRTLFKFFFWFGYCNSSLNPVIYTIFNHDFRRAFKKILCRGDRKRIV

[10] = tested on: 468 kinases; assay: KINOMEscan profile, whole panel; format: binding; details: 10 μM

Structure (SMILES) | NFAT2 translocation to nucleus [1] | inhibition at 10 µM [2] | inhibition at 10 µM [3] | inhibition at 10 µM [4] | inhibition at 10 µM [5] | inhibition at 10 µM [6] | inhibition at 10 µM [7] | inhibition at 10 µM [8] | inhibition at 10 µM [9] | kinases inhibited (<20% activity remaining) in addition to DYRK1A [10]
COc1ccc2c(c1)[nH]c1c(C)nc(CO)cc12 [Compound 2-8, (1-Methyl-7-methoxy-9H-pyrido[3,4-b]indol-3-yl)methanol] | drove NFAT2 translocation to nucleus |  |  |  |  |  |  |  |  | 
COc1ccc2c(c1)[nH]c1c(C)nccc12 [Harmine, reference compound] |  | 23% | 45% | 32% | 37% | 86% | 30% | 75% | 59% | 16
